# Test results reported in patent US20200278355A1, “CONJUGATED PROTEINS AND USES THEREOF” (THE SCRIPPS RESEARCH INSTITUTE, priority 2017, published 2020).
# Columns and labels:
# Assay type in all cases: cell-based
# Conditions in all cases: 20 μM
# TXN = molecular target: T1, TXN (Homo sapiens, UniProt P10599); experiment: ABPP-SILAC BPK-29yne competition in H460 cells: TXN
# T1 construct: H460 cells or H460 cells expressing luciferase in a 10 cm plate were incubated with indicated compounds; endogenous in cells; host or cells: H460
# Method: (§1) Isotopically labeled H460 cell lines were generated as described above. Light and heavy cells were treated with compounds (20 μM) or DMSO, respectively, for 3 h, followed by labeling with the BPK-29yne (5 μM) for 30 min. Cells were washed once ice-cold PBS and lysed in 1% Triton 100-X dissolved in PBS with protease inhibitors (Sigma) by sonication. Lysate was adjusted to 1.5 mg ml^−1 in 500 μL. Samples were conjugated by CuAAC to Biotin-PEG4-azide (5 μL of 10 mM stocks in DMSO, final concentration=100 μM). CuAAC “click” mix contained TCEP, TBTA ligand and CuSO4 as detailed for isoTOP-ABPP sample preparation. Samples were further processed as detailed in: isoTOP-ABPP streptavidin enrichment and isoTOP-ABPP trypsin TEV digestion with the following exception: after overnight incubation at 37° C. with trypsin, tryptic digests were separated from the beads with Micro Bio-Spin columns (Bio-Rad) by centrifugation (1,000×g, 1 min). Beads were rinsed once with water (200 μL) and combined with tryptic digests. […]
# (§2) The MS2 spectra data were extracted and searched using RAW Convertor and ProLuCID algorithm as described in isoTOP-ABPP peptide and protein quantification. […] Ratios of heavy/light (DMSO/test compound) peaks were calculated using in-house CIMAGE software. […] The mean R values and standard deviation for multiple biological experiments were calculated from the average ratios from each replicate. […]
# FAM213A = molecular target: T2, FAM213A (Homo sapiens, UniProt Q9BRX8); experiment: ABPP-SILAC BPK-29yne competition in H460 cells: FAM213A
# T2 construct: Isotopically labeled H460 cell lines were generated as described above; endogenous in cells; host or cells: H460 (SILAC-labelled)
# Method: as §1, §2
# NUDT8 = molecular target: T3, NUDT8 (Homo sapiens, UniProt Q8WV74); experiment: ABPP-SILAC BPK-29yne competition in H460 cells: NUDT8
# T3 construct: H460 cells or H460 cells expressing luciferase in a 10 cm plate were incubated with indicated compounds; endogenous in cells; host or cells: H460
# Method: as §1, §2
# T3 sequence (Q8WV74 whole entry): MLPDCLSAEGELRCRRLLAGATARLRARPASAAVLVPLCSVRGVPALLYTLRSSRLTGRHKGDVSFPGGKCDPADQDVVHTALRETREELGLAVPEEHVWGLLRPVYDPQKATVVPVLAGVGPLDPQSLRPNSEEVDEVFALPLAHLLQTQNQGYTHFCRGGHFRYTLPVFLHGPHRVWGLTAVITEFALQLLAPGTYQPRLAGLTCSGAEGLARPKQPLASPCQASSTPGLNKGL
# T2 sequence (Q9BRX8 whole entry): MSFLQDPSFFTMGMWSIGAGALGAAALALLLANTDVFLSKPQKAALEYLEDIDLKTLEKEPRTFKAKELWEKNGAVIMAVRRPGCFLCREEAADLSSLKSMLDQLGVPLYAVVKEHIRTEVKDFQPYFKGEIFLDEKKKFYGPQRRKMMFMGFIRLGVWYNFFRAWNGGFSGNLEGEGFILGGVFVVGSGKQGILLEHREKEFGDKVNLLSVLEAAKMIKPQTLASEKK
# T1 sequence (P10599 whole entry): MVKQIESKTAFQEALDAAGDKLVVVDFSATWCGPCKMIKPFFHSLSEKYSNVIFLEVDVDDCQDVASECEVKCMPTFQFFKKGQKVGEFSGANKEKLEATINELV
smiles,measurement,setting,value
"O=C(c1ccc(N2CCOCC2)cc1)N1CCCC(N(Cc2ccccc2)C(=O)CCl)CC1 (stereo not drawn) [BPK-29, N-benzyl-2-chloro-N-(1-(4-morpholinobenzoyl)azepan-4-yl)acetamide]",BPK-29-competed BPK-29yne analysis,TXN,Yes (Competed defined as showing R value ≥ 2.5 at 20 μM of test compound)
same,BPK-29-competed BPK-29yne analysis,FAM213A,Yes (Competed defined as showing R value ≥ 2.5 at 20 μM of test compound)
same,BPK-29-competed BPK-29yne analysis,NUDT8,Yes (Competed defined as showing R value ≥ 2.5 at 20 μM of test compound)
